Results taken from a melting point compilation (Tetko et al.; mined from patent text by program, amines drawn as free bases though some values may be those of a salt).

First: C=C(COc1ccccc1C=NO)c1ccccc1
Second: CC(=O)OC1c2ccccc2Oc2ccccc21
The melting point of the first is lower: 61 to 62 °C for the first, 109 to 112 °C for the second.

Compared with `COc1cc2c3c(nc4ccccc4c3c1)-c1ccccc1N2C`, `Fc1ccc(-c2cc(Cn3cnc4c(Cl)nc5ccccc5c43)on2)cc1` is higher in melting point: 214 to 216 °C for the first, 219 to 220 °C for the second.

Compared with `CCN(CC(=O)O)c1ccc(C=O)cc1[N+](=O)[O-]`, `CCOc1ccc(S(=O)(=O)Cl)cc1C(=O)O` is higher in melting point: 90 °C for the first, 108 to 110 °C for the second.

Compared with `CC[Si](CC)(CC)c1ccccc1S(N)(=O)=O`, `CCCCNc1ccccc1S(=O)(=O)NC(=O)n1nc(SC)n(C)c1=O` is higher in melting point: 85.6 °C for the first, 120 °C for the second.

First: C#CCOC(=O)C1=C(C)NC(N)=C(C(=O)OCC)C1c1cccc([N+](=O)[O-])c1 (stereo unspecified)
Second: CCOC(=O)C1C(=O)CC(C)(O)C(C(=O)OCC)C1c1ccc2c(C)c(C)oc2c1 (stereo unspecified)
The melting point of the first is lower: 181 °C for the first, 183 to 185 °C for the second.

Compared with `CS(=O)(=O)c1ccc(-n2nc(C(F)(F)F)cc2-c2ccc(-c3ccco3)cc2)cc1Cl`, `NS(=O)(=O)c1cccc(-c2cc(-c3nc(-c4ccc(C(F)(F)F)cc4)cc(C(F)F)n3)ccn2)c1` is higher in melting point: 139 to 142 °C for the first, 234 °C for the second.

First: O=c1n(-c2ccc(Cl)c(Cl)c2)c(=O)n(SC(Cl)(Cl)Cl)n1SC(Cl)(Cl)Cl
Second: CCc1nc(Cl)c(Oc2cc(OC)ccc2Cl)c(Cl)n1
The melting point of the first is higher: 167 °C for the first, 113 to 114 °C for the second.

Compared with `CN(C(CCn1c(=O)[nH]c2ccccc2c1=O)C(=O)NO)S(=O)(=O)c1ccc(Oc2cccc(Cl)c2)cc1` (stereo unspecified), `O=c1[nH]c2cc(F)ccc2n(C(c2ccccc2)c2ccccc2)c1=O` is higher in melting point: 137 to 140 °C for the first, 144 °C for the second.

First: COC1=C(OC)C(=O)C2=C(CCC(CCOc3ccc(Cl)cc3)CC2)C1=O
Second: COc1ccc2c(c1)C(=O)c1cccc(OC)c1-2
The melting point of the first is lower: 117 to 119 °C for the first, 125 to 127 °C for the second.

First: CN(CCc1ccccc1)c1nc(=O)c2cccnc2s1
Second: CCCS(=O)(=O)Cc1cccc(-c2nc(=O)c3ccccc3s2)n1
The melting point of the first is lower: 115 to 116 °C for the first, 177 to 179 °C for the second.

First: COCCOC[C@H](CC1(C(=O)O)CCCC1)C(=O)OC(C)(C)C
Second: CCOC(=O)c1cc2cc(NC(C)=O)ccc2n1C(=O)OC(C)(C)C
The melting point of the first is lower: 86 to 87 °C for the first, 122 to 123 °C for the second.

First: CNS(=O)(=O)c1ccc(C2=C(c3ccccc3)C(=O)C(C)(C)O2)cc1Cl
Second: CC1(C)OC(c2ccc(S(N)(=O)=O)cc2F)=C(c2ccccc2)C1=O
The melting point of the first is higher: 136 to 137 °C for the first, 79 to 81 °C for the second.

First: COc1ccc(C(=O)CC(C)C)cc1OCCCO
Second: COC(=O)COc1ccc(C(=O)CBr)cc1OC
The melting point of the first is lower: 38 to 40 °C for the first, 105 to 107 °C for the second.

Compared with `Cn1cc(C(=O)c2ccc(F)cc2)cc1C(=O)c1ccccn1`, `Cc1ccccc1CCNC(=O)c1ccc(F)cc1` is lower in melting point: 159 to 161 °C for the first, 82 to 83 °C for the second.

Compared with `CN1CCCCC1CCc1ccccc1NC(=O)c1cccnc1` (stereo unspecified), `COC(=O)c1ccc(OC)nc1SCc1ccccc1` is lower in melting point: 88 to 90 °C for the first, 67 to 71 °C for the second.

First: Cc1cccc2ncc(C(=O)NC34CC5CC(CC(C5)C3)C4)c(=O)n12
Second: CCOC(=O)C1=CC2(CCC1S(=O)(=O)Nc1ccc(F)cc1Cl)CCC1(COCOO1)CO2 (stereo unspecified)
The melting point of the first is higher: 190 to 193 °C for the first, 156 to 157 °C for the second.

Compared with `CN(C)CCCNC(=O)CCCCCCCCCCCNC(N)=NC(=O)c1nc(Cl)c(N)nc1N`, `C=C(C)C(=O)OCCCCCc1ccc(C(F)(F)Oc2ccc(OC(F)(F)c3ccc(CCCCCOC(=O)C(=C)C)cc3)c(C)c2)cc1` is lower in melting point: 82 to 84 °C for the first, 26 °C for the second.

First: CC(C)Cc1cc2nnc(-c3ccccc3F)n2nc1OCc1ncnn1C
Second: Cc1cscc1-c1nc(-c2c(F)cccc2Cl)nn1C
The melting point of the first is lower: 134 to 136 °C for the first, 153 to 155 °C for the second.

Compared with `Nc1nc(-c2ccccc2)nc2nc(-c3ccco3)nn12`, `Nc1ccc2c(c1)CN(Cc1ccccc1)C2` is lower in melting point: greater than 300 °C for the first, 110 to 115 °C for the second.

Compared with `N#CC1CN1C(=O)c1ccco1` (stereo unspecified), `Cc1ccc(S(=O)(=O)N2[C@@H](C#N)CC[C@H]2c2ccc(F)cc2)cc1` (racemic) is higher in melting point: 73 to 76 °C for the first, 128 °C for the second.

Compared with `CCOc1cc(CN2CCN(c3ccc(C(=O)NC)cc3)CC2)cc2c1OC(C)C(=O)N2` (stereo unspecified), `COc1cc(C(C)=O)ccc1OCCN1C2CCC1CC(c1n[nH]c3cc(F)ccc13)C2` (stereo unspecified) is lower in melting point: 228 to 233 °C for the first, 151 to 152 °C for the second.

First: CC(=O)Nc1cccc2c1C(=O)c1c-2n[nH]c1-c1ccc(C(F)(F)F)cc1
Second: CC(C)(CO)NS(=O)(=O)c1cccc(NC(=O)c2cnn3c(C(F)(F)F)cc(-c4ccc(OC(F)(F)F)cc4)nc23)c1
The melting point of the first is higher: greater than 300 °C for the first, 212 °C for the second.

First: CC(C)(c1ccc(C(C)(C)c2ccc(O)cc2O)cc1)c1ccc(O)cc1O
Second: Oc1ccc(-c2cc3c(Br)c(O)ccc3o2)cc1
The melting point of the first is lower: 110 to 115 °C for the first, 196 to 198 °C for the second.

Compared with `CC#CCOc1ccc(/C=C/C(=O)Nc2ccccc2C(=O)O)cc1OC`, `COc1ccc(C(=O)Nc2ccccc2)cc1CNS(=O)(=O)c1cc(Cl)cc(Cl)c1` is higher in melting point: 194 to 195 °C for the first, 203 to 206 °C for the second.

First: C=C(C)c1ccc(O)c(-n2nc3ccccc3n2)c1
Second: CC(=O)N(Nc1ccc(Cl)cc1F)c1c(C#N)cnc2cc(O)ccc12
The melting point of the first is lower: 124 °C for the first, 182 to 191 °C for the second.

Compared with `CCCCc1nc(Cl)c(CO)n1Cc1ccc(N)cc1`, `Nc1ccc(Cl)c(Cl)c1CO` is higher in melting point: 101 to 103 °C for the first, 134 to 135 °C for the second.

Compared with `CC(C)(C)c1cc(C2=C(c3cc(C(C)(C)C)c(O)c(C(C)(C)C)c3)C2=C(C#N)C#N)cc(C(C)(C)C)c1O`, `COC(=O)c1cc(C(C)(C)C)c(OC(=O)c2cc(C(C)(C)C)c(O)c(C(C)(C)C)c2)c(C(C)(C)C)c1` is lower in melting point: 280 to 281 °C for the first, 206 to 209 °C for the second.

Compared with `CC(C)=CC(=S)Nc1ccccc1`, `O=c1[nH]c2cc(Cl)ccc2c(O)c1Sc1ccccc1Cl` is higher in melting point: 175 °C for the first, greater than 300 °C for the second.

First: CC(C)(O)CCOc1c(-c2ccc(S(C)(=O)=O)cc2)cnn(-c2ccc(F)c(F)c2)c1=O
Second: CNC(=O)c1cc(-c2ccc(OC)cc2)nn(CCO)c1=O
The melting point of the first is lower: 131 to 133 °C for the first, 160 to 161 °C for the second.

First: COc1ccncc1Nc1nc(N2CCOCC2)nc(-n2c(C(F)F)nc3ccccc32)n1
Second: O=S(=O)(c1ccccc1)N1CCC(Nc2nc(OCC(F)(F)F)nc(N3CCCC3)n2)CC1
The melting point of the first is lower: 161 to 163 °C for the first, 212 to 213 °C for the second.

First: Fc1cccc(Cl)c1[C@@H]1C[C@H](c2ccc(Cl)cc2)Nc2ncnn21 (relative stereo)
Second: N#Cc1ccc(NC(=O)c2cccc(OCc3ccc(F)cc3)c2)nc1
The melting point of the first is higher: 227 to 228 °C for the first, 170 to 171 °C for the second.

Compared with `Cc1ccc2c(n1)sc1c(S)nnnc12`, `Nc1ncc(Cc2csc3ccccc23)c(N)n1` is higher in melting point: 205 to 208 °C for the first, 220 to 222 °C for the second.

First: COc1ccc(-c2nnc(C)nc2-c2ccc(OC)cc2)cc1
Second: CN(C)C(=O)CCCOC(=O)C(OCc1ccc(-c2ccc(Cl)cc2)cc1)(C(F)(F)F)C(F)(F)F
The melting point of the first is higher: 109 to 113 °C for the first, 54 to 55 °C for the second.

First: CC(=O)OC1CSC(Oc2ccc(-c3ccncc3)cc2F)C(OC(C)=O)C1OC(C)=O (stereo unspecified)
Second: CNC(=O)Oc1ccc2c(ccn2Cc2ccncc2)c1
The melting point of the first is higher: 179 °C for the first, 170 °C for the second.

Compared with `CCCc1c(OCCCC#CCO)ccc(C(C)=O)c1O`, `CCCc1c2nc(C(=O)OCC)cc(OCC)c2cc2c(=O)cc(C(=O)OCC)oc12` is higher in melting point: 88 to 90 °C for the first, 190 to 192 °C for the second.

First: CCOC(=O)c1cc(CBr)ccc1S(=O)(=O)NC(=O)Nc1nc(OC)cc(OC)n1
Second: COC(=O)c1nc(-c2ccc(Cl)c(OC)c2F)nc(N)c1OCC(F)(F)F
The melting point of the first is higher: 195 to 197 °C for the first, 123 to 125 °C for the second.

First: CCC(=O)N1Cc2cn[nH]c2-c2cc([N+](=O)[O-])ccc21
Second: CC(=O)c1ccc2c(c1)CC(=O)N2CC(F)(F)F
The melting point of the first is higher: 219 to 221 °C for the first, 170 to 171 °C for the second.

First: OCc1cnc(C(O)c2cc(F)ccc2F)c(F)c1 (stereo unspecified)
Second: CC(=O)N1CCC(O)(C(=O)c2cc(F)ccc2F)CC1
The melting point of the first is lower: 94 to 96 °C for the first, 118 to 120 °C for the second.

Compared with `Nc1ncnc2[nH]c(=S)sc12`, `Nc1n[nH]c2nc(C3CC3)cc(-c3ccc(Cl)c(Cl)c3)c12` is lower in melting point: greater than 370 °C for the first, 256 to 258 °C for the second.

First: COc1cc(-c2nc(NCC(C)C)c3c(C)c(C#N)sc3n2)cc(OC)c1OC
Second: COc1cc2ccc3c4cc5c(cc4ncc3c2cc1OC)OCO5
The melting point of the first is higher: 182 to 184 °C for the first, 171 °C for the second.

First: COc1ccccc1-c1cc(Cl)cc2c1NC(CN)CO2 (stereo unspecified)
Second: O=C1c2ccccc2C(=O)N1CCc1ccc2c(c1)OCO2
The melting point of the first is lower: 100 °C for the first, 139 to 140 °C for the second.

First: O=C1CC2(CC=CC2)CC(=O)O1
Second: CC(=O)NC1CCN(c2cccc(Br)n2)CC1
The melting point of the first is lower: 64 to 65 °C for the first, 158 to 160 °C for the second.

First: O=C(NCc1cccs1)c1ccc(Cl)cc1
Second: C=C(c1cc(Cl)ccc1N1CCCCC1)C(C(N)=O)c1ccc(C(=O)O)cc1 (stereo unspecified)
The melting point of the first is lower: 153 to 154 °C for the first, 198 to 200 °C for the second.

First: COc1cccc(COC(=O)c2ncn3c2[C@@H]2CCN2C(=O)c2c(Cl)cccc2-3)c1
Second: O=C(Nc1ccc(Br)cn1)C(CC1CCCC1)c1ccc(Cl)c([N+](=O)[O-])c1 (stereo unspecified)
The melting point of the first is lower: 126 to 127 °C for the first, 128 to 130 °C for the second.

First: OCC1CCc2c([nH]c3ccc(Cl)cc23)C1 (stereo unspecified)
Second: O=c1[nH]c(CCN2CCCCC2)cc2c(O)cccc12
The melting point of the first is lower: 168 to 169 °C for the first, 261 to 263 °C for the second.

Compared with `CCOC(=O)c1[nH]c2c(Cl)ccc(Cl)c2c1C`, `Cc1c(Cl)cc(O)cc1Cl` is lower in melting point: 107 to 108 °C for the first, 92 to 93 °C for the second.

Compared with `C=CCNc1nc(Cl)nc2c1ncn2CC=C`, `CC(C)NC(c1nccn1C)C1(c2ccc(Cl)c(Cl)c2)CCC1` (stereo unspecified) is lower in melting point: 110 to 112 °C for the first, 98 to 100 °C for the second.

Going from `CCON=C(CC)C1=C(O)CC(c2c(C)c([N+](=O)[O-])c(C)c([N+](=O)[O-])c2C)CC1=O` (stereo unspecified) to `CS(=O)(=O)Nc1ccc(OCC2CCN(c3cc([N+](=O)[O-])ccn3)CC2)cc1`, the melting point rises from 170 °C to 184 °C.

Compared with `Nc1cccc(Cn2c(-c3ccc(Nc4cncnc4)cc3)ccc2-c2ccccc2Cl)n1`, `Clc1ccc2c(c1)Cn1cccc1C(C1CCN(CCc3ccccc3)CC1)O2` (stereo unspecified) is higher in melting point: 88 to 90 °C for the first, 145 to 147 °C for the second.

First: NC(=O)/C=C/C1=CC=CC(F)(C(F)(F)F)C1 (stereo unspecified)
Second: COc1cc(C(F)(F)F)nc2c(N3CCC4(CC3)OCCO4)ccc(F)c12
The melting point of the first is higher: 121 to 122 °C for the first, 101 to 103 °C for the second.

With `FC(F)(F)c1cccc(CO[C@H]2CO[C@@H](c3ccccc3)OC2)c1` the melting point was 115 to 116 °C.
